Series [1] can be described thus: Aqueous solubility in oocyte recording buffer by nephelometry. The series is classed as physicochemical. On the procedure:
(§1) Three analogs, (58) 997-33, (26)997-23 and (64) 997-57 were evaluated for plasma stability as well as aqueous solubility. […] The aqueous solubility of compounds (26)997-23 and (58) 997-33 was evaluated in oocyte recording buffer using nephelometry. […] In order to assess the potential BBB penetration, compounds (26)997-23 and (64)997-57 were selected for evaluation in the MDR1-MDCK permeability assay (FIG. 19). […] The same compounds were also evaluated for metabolic stability using human liver microsomes.

The target in series [2] is T1, H2 (Homo sapiens, UniProt P25021).
T1 construct: NIMH PDSP (screening programme)
T1 sequence (P25021 whole entry): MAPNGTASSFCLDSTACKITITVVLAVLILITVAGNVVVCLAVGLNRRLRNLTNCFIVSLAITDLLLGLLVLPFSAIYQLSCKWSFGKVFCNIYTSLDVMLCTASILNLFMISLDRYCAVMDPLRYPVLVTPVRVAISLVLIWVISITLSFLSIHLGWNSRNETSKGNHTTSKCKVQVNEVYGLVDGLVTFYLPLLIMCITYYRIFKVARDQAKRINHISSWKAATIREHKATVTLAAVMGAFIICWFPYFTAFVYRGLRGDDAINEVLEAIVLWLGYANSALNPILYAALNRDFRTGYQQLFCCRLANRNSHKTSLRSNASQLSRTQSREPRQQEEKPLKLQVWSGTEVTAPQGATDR
Kind of series: NIMH PDSP Ki determination, H2. In kind it is binding. As to the method:
(§2) The actions of these two compounds at 5 μM on were tested 42 different ion channels, G-protein coupled receptors, and transporters via the National Institutes of Mental Health (NIMH) psychoactive drug screening program (PDSP).

In series [3] the target is T2, kappa-opioid (Homo sapiens, UniProt P41145).
T2 construct: NIMH PDSP (screening programme)
T2 sequence (P41145 whole entry): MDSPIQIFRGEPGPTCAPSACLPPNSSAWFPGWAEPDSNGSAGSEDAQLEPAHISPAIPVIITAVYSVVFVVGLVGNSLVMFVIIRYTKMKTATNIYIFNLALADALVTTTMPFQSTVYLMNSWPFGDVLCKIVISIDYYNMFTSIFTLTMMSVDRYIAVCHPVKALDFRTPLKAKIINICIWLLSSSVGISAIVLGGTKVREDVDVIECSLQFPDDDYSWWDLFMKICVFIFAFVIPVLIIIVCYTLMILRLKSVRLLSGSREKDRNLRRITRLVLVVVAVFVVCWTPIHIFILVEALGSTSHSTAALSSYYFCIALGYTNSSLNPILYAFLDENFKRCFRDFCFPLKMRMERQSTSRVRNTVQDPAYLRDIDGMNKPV
Kind of series: NIMH PDSP Ki determination, kappa-opioid. In kind it is binding. As to the method: as §2

The subject of series [4] is 42 different ion channels, G-protein coupled receptors, and transporters. Kind of series: NIMH PDSP primary binding assay. Particulars: 5 μM compound. On the procedure:
as §2

The nature of series [5]: Human liver microsomal stability. In kind it is in vitro ADME. The conditions noted are these: 60 minute assay. On the procedure: Human liver microsomes were obtained from XenoTech. The reaction mixture was prepared with 0.5 mg/mL human liver microsomes, 100 mM potassium phosphate (pH 7.4), 5 mM magnesium chloride, 1 μM test compound. The reaction mixture was incubated in a shaking water bath at 37° C. for 3 minutes prior to the addition of NADPH (1 mM). Testosterone was run simultaneously in a separate vessel as a control. 100 μl aliquots were taken at 0, 10, 20, 30 and 60 minutes for both test compound and testosterone. The aliquots were combined immediately with 400 μl of ice cold 50/50 ACN/dH2O containing 0.1% formic acid and internal standard to terminate the reaction. The samples were then mixed and centrifuged to precipitate microsomal proteins. All samples were assayed by LC-MS/MS using electrospray ionization and multiple reaction monitoring and the peak area responses to internal standard of the compounds at each time point was compared to the peak area response at time 0 to determine the percent compound remaining. The human liver microsomal stability assays were performed by Absorption Systems.
For orientation: Liver microsomes are vesicles of endoplasmic reticulum, rich in cytochrome P450 enzymes.

Series [6] is described as follows: Plasma stability, human. In kind it is in vitro ADME. The conditions noted are these: two-hour time-course. As to the method: as §1
In series [7] the test system is MDR1-MDCK cell monolayers. Kind of series: MDR1-MDCK permeability assay. The conditions noted are these: for Papp A-B: MDR1-MDCK, 5 μM, 120 minutes. In kind it is in vitro ADME. On the procedure: The Papp and efflux ratio were calculated as described in the Methods. […] See Wang et al., International Journal of Pharmaceutics, 2005, 288, 349-359.
Cell monolayers were grown to confluence on collagen-coated, microporous, polycarbonate membranes in 12-well Costar Transwell® plates. The permeability assay buffer was Hanks Balanced Salt Solution containing 10 mM HEPES and 15 mM glucose at pH 7.4. The buffer in the receiver chamber also contained 1% bovine serum albumin. The dosing solution concentration in the assay buffer was 5 μM for each compound tested. The cell monolayers were dosed on the apical side (A-to-B) or basolateral side (B-to-A) and incubated at 37° C. with 5% CO2 in a humidified incubator. Samples were taken from the donor and receiver chambers at 120 minutes. Each determination was performed in duplicate. The co-dosed lucifer yellow flux was also measured for each monolayer to ensure no damage was inflicted to the cell monolayers during the flux period. All samples were assayed by LC-MS/MS using electrospray ionization. The apparent permeability (Papp) and percent recovery were calculated as follows. […] Human Liver Microsomal Stability

For series [8], the system named is GluN2D receptor mutants Q801Y, L705F and A752V. Kind of series: Inhibition of mutant GluN2D receptors (Q801Y, L705F and A752V). In kind it is cell-based. Particulars: racemic mixture, A752V versus wild type. As to the method: Mutations to the wild type GluN2D receptor (Q801Y, L705F and A752V) were described to decrease sensitivity of the GluN2D receptor to blockade by either DQP-1105 and/or QNZ-46 in the membrane proximal region of the bilobed ligand binding domain encoded by the S2 region of the polypeptide chain were evaluated. See Acker et al. and Hansen & Traynelis, J Neurosci, 2011, 31, 3650-3661.

Series [9] concerns the target T3, 5-HT6 (Homo sapiens, UniProt P50406).
T3 construct: NIMH PDSP (screening programme)
Kind of series: NIMH PDSP Ki determination, 5-HT6. In kind it is binding. As to the method:
as §2

A short description of series [10]: Plasma stability, mouse. The conditions noted are these: two-hour time-course. In kind it is in vitro ADME. As to the method: as §1
A short description of series [11]: Plasma stability, rat. In kind it is in vitro ADME. Particulars: two-hour time-course. On the procedure: as §1
Series [12] addresses T4, mu-opioid (Homo sapiens, UniProt P35372).
T4 construct: NIMH PDSP (screening programme)
Kind of series: NIMH PDSP Ki determination, mu-opioid. In kind it is binding. As to the method:
as §2

Series [13] addresses GluN1/GluN2D (Rattus norvegicus, UniProt Q62645). Kind of series: Inhibition of GluN1/GluN2D responses: dependence on agonist concentration and on voltage. The conditions noted are these: 1 μM compound. In kind it is cell-based. An excerpt:
Although it is not intended that embodiments of this disclosure be limited by any mechanism, Acker et al. report a mechanism for noncompetitive inhibition by GluN2C/D N-methyl-d-aspartate receptor subunit-selective modulators. Molecular Pharmacology 2011, 80, 782-795.

Series [14] has as its target T5, 5-HT1E (Homo sapiens, UniProt P28566).
T5 construct: NIMH PDSP (screening programme)
Kind of series: NIMH PDSP Ki determination, 5-HT1E. In kind it is binding. On the procedure: as §2

Series [15] concerns the target GluN1/GluN2D receptors (Rattus norvegicus, UniProt P35439+Q62645). Kind of series: Whole-cell patch clamp recordings of GluN1/GluN2D receptors expressed in HEK293 cells. The series is classed as cell-based. On the technique in general: Patch clamp records ionic current or voltage across a cell membrane.
Protocol: The time course of recovery from inhibition could also be well described by a single exponential function, and the kOFF was determined by the y-intercept in the linear regression relationship between the reciprocal of the tau describing the onset of inhibition and the drug concentration.
The target of series [16] is T6, GluN2D-containing receptors (Rattus norvegicus, UniProt Q62645).
T6 construct: expressed in transfected cells; host or cells: Xenopus laevis oocytes
T6 sequence (Q62645 28-1323, other chains not shown): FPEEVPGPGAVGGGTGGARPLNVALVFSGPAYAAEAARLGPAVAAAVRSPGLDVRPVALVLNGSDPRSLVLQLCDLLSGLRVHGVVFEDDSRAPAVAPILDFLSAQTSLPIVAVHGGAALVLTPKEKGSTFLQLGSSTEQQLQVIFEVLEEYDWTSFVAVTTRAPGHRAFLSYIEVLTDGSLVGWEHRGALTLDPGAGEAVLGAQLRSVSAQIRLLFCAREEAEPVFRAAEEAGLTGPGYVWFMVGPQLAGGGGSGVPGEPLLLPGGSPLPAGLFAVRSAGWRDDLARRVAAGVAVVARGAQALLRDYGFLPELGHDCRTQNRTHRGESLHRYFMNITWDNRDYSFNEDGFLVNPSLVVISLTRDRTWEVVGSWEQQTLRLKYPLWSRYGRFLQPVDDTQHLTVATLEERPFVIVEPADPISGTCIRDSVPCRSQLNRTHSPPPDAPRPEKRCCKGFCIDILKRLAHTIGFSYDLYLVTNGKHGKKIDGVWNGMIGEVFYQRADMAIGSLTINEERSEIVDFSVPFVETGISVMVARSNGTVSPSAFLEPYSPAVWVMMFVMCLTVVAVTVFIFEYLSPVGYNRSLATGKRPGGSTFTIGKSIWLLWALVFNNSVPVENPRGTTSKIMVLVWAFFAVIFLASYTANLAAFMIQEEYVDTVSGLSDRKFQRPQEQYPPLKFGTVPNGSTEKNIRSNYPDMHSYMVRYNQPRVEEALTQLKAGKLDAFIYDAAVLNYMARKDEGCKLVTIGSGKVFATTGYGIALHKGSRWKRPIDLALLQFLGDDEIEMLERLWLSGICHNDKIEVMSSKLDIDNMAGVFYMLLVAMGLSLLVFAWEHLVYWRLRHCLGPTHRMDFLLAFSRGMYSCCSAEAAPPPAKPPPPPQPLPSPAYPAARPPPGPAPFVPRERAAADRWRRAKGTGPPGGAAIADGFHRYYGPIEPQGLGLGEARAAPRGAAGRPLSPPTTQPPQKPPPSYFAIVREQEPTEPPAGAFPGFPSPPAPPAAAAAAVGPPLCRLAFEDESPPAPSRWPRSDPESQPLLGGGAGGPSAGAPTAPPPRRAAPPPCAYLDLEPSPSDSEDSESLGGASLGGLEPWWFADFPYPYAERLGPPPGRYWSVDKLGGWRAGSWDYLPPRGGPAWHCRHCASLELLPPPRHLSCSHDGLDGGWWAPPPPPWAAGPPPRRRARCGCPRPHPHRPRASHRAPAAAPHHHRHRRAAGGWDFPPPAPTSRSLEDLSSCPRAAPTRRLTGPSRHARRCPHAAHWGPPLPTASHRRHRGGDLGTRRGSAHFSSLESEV
Kind of series: Two-electrode voltage-clamp inhibition of GluN2D-containing NMDA receptors in Xenopus laevis oocytes. Particulars: for IC50: GluN2D-containing receptors, read-out: inhibition IC50 for GluN2D. In kind it is cell-based. As to the method: (§3) IC50 values were obtained by fitting the Hill equation to the average composite concentration-effect curves.
(§4) Xenopus laevis oocytes were isolated and maintained as described in Hansen & Traynelis, J Neurosci 2011, 31, 3650-3661. Oocytes were placed in a perfusion chamber with recording solution comprised of (in mM) 90 NaCl, 1 KCl, 0.5 BaCl2, 0.005 EDTA and 10 HEPES, pH adjusted to 7.4 with NaOH at 23° C. The glass electrodes used had tip resistance of 0.5-2.0 MΩ and were filled with 0.3-3.0 M KCl. Compounds were made as 20 mM stock solutions in DMSO and diluted to final concentrations in recording solution (final DMSO was 0.1-0.05% vol/vol). The current recordings were performed using a Warner OC-725B or C amplifier at a holding potential of −40 mV.
For orientation: In two-electrode clamp one electrode senses voltage and the other passes current.

For series [17], the target named is T7, GluN2C-containing receptors (Rattus norvegicus, UniProt Q00961).
T7 construct: expressed in transfected cells; host or cells: Xenopus laevis oocytes
T7 sequence (Q00961 20-1237, other chains not shown): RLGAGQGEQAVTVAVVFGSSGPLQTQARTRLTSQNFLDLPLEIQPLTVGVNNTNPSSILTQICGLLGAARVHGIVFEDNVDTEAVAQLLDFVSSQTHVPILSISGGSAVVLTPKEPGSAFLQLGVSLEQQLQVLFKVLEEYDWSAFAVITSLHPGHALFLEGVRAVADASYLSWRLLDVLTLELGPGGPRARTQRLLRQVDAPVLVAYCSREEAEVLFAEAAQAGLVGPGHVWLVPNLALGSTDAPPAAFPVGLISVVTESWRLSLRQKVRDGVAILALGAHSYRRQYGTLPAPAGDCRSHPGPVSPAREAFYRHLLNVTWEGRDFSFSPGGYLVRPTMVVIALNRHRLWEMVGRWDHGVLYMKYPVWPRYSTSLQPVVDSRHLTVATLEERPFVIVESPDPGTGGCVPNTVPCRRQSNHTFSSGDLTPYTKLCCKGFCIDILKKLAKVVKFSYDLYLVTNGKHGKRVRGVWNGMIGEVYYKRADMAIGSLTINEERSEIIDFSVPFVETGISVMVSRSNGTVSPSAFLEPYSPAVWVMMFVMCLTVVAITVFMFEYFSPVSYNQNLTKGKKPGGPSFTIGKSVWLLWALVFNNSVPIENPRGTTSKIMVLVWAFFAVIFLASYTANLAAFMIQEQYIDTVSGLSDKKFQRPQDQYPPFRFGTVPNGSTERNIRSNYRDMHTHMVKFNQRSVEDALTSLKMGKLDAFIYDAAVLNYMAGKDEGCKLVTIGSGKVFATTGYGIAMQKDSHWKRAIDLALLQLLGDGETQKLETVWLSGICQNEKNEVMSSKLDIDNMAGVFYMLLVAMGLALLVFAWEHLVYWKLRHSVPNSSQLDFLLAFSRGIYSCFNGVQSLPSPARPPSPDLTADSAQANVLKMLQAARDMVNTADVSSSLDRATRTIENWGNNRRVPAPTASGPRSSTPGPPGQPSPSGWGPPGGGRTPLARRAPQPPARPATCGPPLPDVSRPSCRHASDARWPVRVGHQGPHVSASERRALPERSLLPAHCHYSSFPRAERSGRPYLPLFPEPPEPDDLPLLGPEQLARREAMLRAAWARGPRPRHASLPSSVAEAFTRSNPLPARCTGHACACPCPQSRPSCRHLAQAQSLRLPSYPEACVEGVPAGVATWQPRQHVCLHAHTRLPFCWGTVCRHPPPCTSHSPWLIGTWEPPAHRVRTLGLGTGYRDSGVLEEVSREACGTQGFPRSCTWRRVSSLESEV
Kind of series: Two-electrode voltage-clamp inhibition of GluN2C-containing NMDA receptors in Xenopus laevis oocytes. The series is classed as cell-based. As to the method: as §3, §4

The subject of series [18] is GluN2C- and GluN2D-containing NMDA receptors. Kind of series: NMDA receptor inhibition and subunit selectivity, GluN2C/GluN2D not told apart. The series is classed as cell-based. The conditions noted are these: activity at GluN2C- and GluN2D-containing receptors versus GluN2A. As to the method: as §3, §4

SMILES strings stand for the structures. Where only a bound is given, the exact number is not on record here.

As a reminder, the solubility is how much of the substance goes into solution per volume. The low end stands for little dissolved substance, the high end for much dissolved substance. For orientation: Ki means the dissociation constant of the complex between target and ligand, obtained from inhibition or displacement. For orientation: IC50 means the concentration needed to halve the response being measured. As a reminder, the Kd is the constant that tells how readily two partners part at equilibrium.

Sequence of GluN1/GluN2D (Q62645 28-1323, other chains not shown): as the sequence (Q62645 28-1323, other chains not shown) above
Sequence of GluN1/GluN2D receptors (Q62645 28-1323, other chains not shown): as above
T3 sequence (P50406 whole entry, species assumed): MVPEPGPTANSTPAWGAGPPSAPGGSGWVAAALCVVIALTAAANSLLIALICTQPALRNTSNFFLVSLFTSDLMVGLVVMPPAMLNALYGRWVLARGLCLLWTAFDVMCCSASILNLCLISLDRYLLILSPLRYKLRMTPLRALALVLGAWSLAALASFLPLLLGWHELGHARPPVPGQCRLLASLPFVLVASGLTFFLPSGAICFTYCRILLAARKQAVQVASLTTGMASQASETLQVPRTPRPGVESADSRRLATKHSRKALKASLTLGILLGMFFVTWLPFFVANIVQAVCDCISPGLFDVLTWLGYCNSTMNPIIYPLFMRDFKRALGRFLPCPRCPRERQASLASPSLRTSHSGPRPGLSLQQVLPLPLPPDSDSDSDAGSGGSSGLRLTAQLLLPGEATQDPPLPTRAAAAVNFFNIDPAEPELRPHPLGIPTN
T5 sequence (P28566 whole entry, species assumed): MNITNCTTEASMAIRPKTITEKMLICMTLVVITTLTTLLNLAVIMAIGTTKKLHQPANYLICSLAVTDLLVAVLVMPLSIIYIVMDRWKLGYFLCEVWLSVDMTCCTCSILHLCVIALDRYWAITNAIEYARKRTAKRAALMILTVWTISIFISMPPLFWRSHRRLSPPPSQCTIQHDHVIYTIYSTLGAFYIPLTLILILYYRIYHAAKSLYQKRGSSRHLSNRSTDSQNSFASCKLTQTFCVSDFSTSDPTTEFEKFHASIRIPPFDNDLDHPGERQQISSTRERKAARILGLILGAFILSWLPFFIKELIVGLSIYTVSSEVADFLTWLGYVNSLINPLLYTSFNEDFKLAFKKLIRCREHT
T4 sequence (P35372 whole entry): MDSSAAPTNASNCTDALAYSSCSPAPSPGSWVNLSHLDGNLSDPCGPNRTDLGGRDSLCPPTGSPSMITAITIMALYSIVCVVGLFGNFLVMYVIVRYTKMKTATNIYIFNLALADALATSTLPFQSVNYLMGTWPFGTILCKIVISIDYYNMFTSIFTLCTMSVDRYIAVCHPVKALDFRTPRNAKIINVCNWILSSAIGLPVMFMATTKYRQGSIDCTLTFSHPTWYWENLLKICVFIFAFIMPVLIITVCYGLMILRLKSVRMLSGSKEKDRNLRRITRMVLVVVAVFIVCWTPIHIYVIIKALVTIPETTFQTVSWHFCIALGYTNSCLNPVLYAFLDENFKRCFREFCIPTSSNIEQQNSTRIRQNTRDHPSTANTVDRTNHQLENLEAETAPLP

`O=C(O)CCC(=O)N1N=C(c2c(-c3ccc(Cl)cc3)c3ccccc3[nH]c2=O)CC1c1ccc(Cl)cc1` (racemic) [Compound 997-23, 4-(5-(4-Chlorophenyl)-3-(4-(4-chlorophenyl)-2-oxo-1,2-dihydroquinolin-3-yl)-4,5-dihydro-1H-pyrazol-1-yl)-4-oxobutanoic acid] yielded a solubility in [1] of over 80 µM. The Ki in series [2], in [3] and in series [9] was over 10000 nM in each case. Besides, the “effect on receptors and transporters in primary binding assay” value in series [4] is reported as “minimal effect”. The “degradation in human liver microsomes, in words” value in series [5] was “minimal degradation”. Further, the plasma stability entry in series [6], in [10] and in [11] was “minimal degradation” each time. For the same molecule, in series [7], the “Papp A-B” value turned out to be 0.47 ×10⁻⁶ cm/s. In addition, the “effect of GluN2D mutations on degree of inhibition” value in series [8] was “significantly reduced the degree of inhibition”.

Turning to `O=C(O)/C=C/C(=O)N1N=C(c2c(-c3ccc(Br)cc3)c3ccccc3[nH]c2=O)CC1c1ccc(Cl)cc1` (racemic) [Compound 997-33, (E)-4-(3-(4-(4-Bromophenyl)-2-oxo-1,2-dihydroquinolin-3-yl)-5-(4-chlorophenyl)-4,5-dihydro-1H-pyrazol-1-yl)-4-oxobut-2-enoic acid], the solubility in series [1] was over 80 µM. Also, the Ki in series [12], in series [3], in [14] and in series [9] was over 10000 nM throughout. For the same molecule, the GluN1/GluN2D response remaining in series [13] (30 μM glutamate and glycine, n=6) is 4.1 ± 0.58 % of control; in series [13] (3 mM glutamate and glycine, n=6), 3.1 ± 0.50 % of control; in series [13] (+30 mV, n=8), 4.8+1.2 % of control; in series [13] (−40 mV, n=8), 4.9 ± 1.3 % of control. Moreover, the “effect on receptors and transporters in primary binding assay” value in [4] is recorded as “minimal effect”. Moreover, the plasma stability result in [6], in [10] and in series [11] was “minimal degradation” throughout. In addition, the 50% inhibitory concentration (IC50) in series [15] (HEK293 cells, n=4, read-out: IC50 for inhibition of the response under whole-cell voltage clamp) stood at 990 nM. The Kd in series [15] (calculated from kOFF and kON, read-out: dissociation constant KD) was 990 nM.

With `O=C(O)CCC(=O)N1N=C(c2c(-c3ccc(Br)cc3)c3ccccc3[nH]c2=O)CC1c1ccc(Br)cc1` (centres unmarked) [Compound 997-7, 4-(5-(4-Bromophenyl)-3-(4-(4-bromophenyl)-2-oxo-1,2-dihydroquinolin-3-yl)-4,5-dihydro-1H-pyrazol-1-yl)-4-oxobutanoic acid], in series [16], the “selectivity for GluN2D-containing over GluN2A-containing receptors” value is recorded as 33 fold, the “selectivity for GluN2D-containing over GluN2B-containing receptors” value was 67 fold and the IC50 was found to be 390 nM. For the same molecule, in [17], the IC50 amounted to 710 nM.

In the case of `O=C(CCCO)N1N=C(c2c(-c3ccc(Cl)cc3)c3ccccc3[nH]c2=O)CC1c1ccc(Cl)cc1` (centres unmarked) [Compound 997-57, 4-(4-Chlorophenyl)-3-(5-(4-chlorophenyl)-1-(4-hydroxybutanoyl)-4,5-dihydro-1H-pyrazol-3-yl)quinolin-2(1H)-one], the plasma stability result in series [6], in series [10] and in series [11] was “minimal degradation” throughout. Moreover, the “Papp A-B” value in series [7] came out at 2.46 ×10⁻⁶ cm/s. Moreover, the BBB penetration classification entry in series [7] (from Papp and efflux ratio in MDR1-MDCK) is given as “low BBB potential”. Also, the “selectivity over GluN2A-containing receptors” value in series [18] was found to be 90 fold.

For the molecule `O=C(O)CCCN1N=C(c2c(-c3ccc(Cl)cc3)c3ccccc3[nH]c2=O)CC1c1ccc(Cl)cc1` (centres unmarked) [Compound 997-63, 4-(5-(4-Chlorophenyl)-3-(4-(4-chlorophenyl)-2-oxo-1,2-dihydroquinolin-3-yl)-4,5-dihydro-1H-pyrazol-1-yl)butanoic acid], the values for the IC50 in series [16] and in series [17] were 1700 nM and 3000 nM, respectively.

Source of the values: patent US12312328B2, “Pyrazoline dihydroquinolones, pharmaceutical compositions, and uses” (Emory University, priority 2013, dated 2025).
